Assay results reported in patent US20050182140A1, “Antimicrobial compositions” (Microban Products Company, priority 2003, published 2005).

Experiments:
Assay type in all cases: cell-based
[1] = test system: S. aureus 6538; assay: Kirby Bauer Test Method, treated cotton samples (Example 3); details: agent at 800 ppm with R10800 at 0.67% and USV at 0.33%, cotton laundered 50 times
Method: (§1) The efficacy of Emulsion A in cotton sample material was tested, alone and in combination with other agents. The Kirby Bauer Test Method, which is a known bacterial test method, was followed. The sample size of the cotton was 38.1 mm×38.1 mm (1.5 inches×1.5 inches) square. The growth medium was Mueller-Hinton Agar. Prior to treatment, the cotton was steam sterilized at 121° C. The samples were pre-wet with sterile deionized water. The samples were incubated at 37° C.±2° C. for 18 to 24 hours. The samples were each laundered 50 times unless indicated to the contrary. NZ means that no zone of inhibition surrounded the sample. NI means that there was no inhibition of growth under the sample (if observable). The zone of inhibition was reported in millimeters.
(§2) Note that the percentages of R10800 and USV represent target loading levels on the cotton samples.

[2] = test system: K. pneumoniae; assay: as above; details: agent at 800 ppm with R10800 at 0.67% and USV at 0.33%, cotton laundered 50 times
Method: as §1, §2

[3] = test system: S. aureus 6538; assay: AATCC Test Method 147, treated cotton samples (Examples 2 and 4); details: Example 2; agent at 900 ppm; cotton laundered 50 times
Method: (§3) The efficacy of Emulsion A in cotton sample material was tested, alone and in combination with other agents. The AATCC Test Method 147, which is a known bacterial test method for textiles, was followed. The sample size of the cotton was a 25 mm×75 mm rectangle. The growth medium was Nutrient Agar. Prior to treatment, the cotton was steam sterilized at 121° C. The samples were incubated at 37° C.±2° C. for 18 to 24 hours. The samples were each laundered 50 times prior to doing the micro testing unless indicated to the contrary. NZ means that no zone of inhibition surrounded the sample. NI means that there was no inhibition of growth under the sample (if observable). The zone of inhibition was reported in millimeters.
(§4) The efficacy of Emulsion A in cotton sample material was tested, alone and in combination with other agents. The AATCC Test Method 147, which is a known test method, was followed. The sample size of the cotton was 25 mm×75 mm rectangle. The growth medium was Nutrient Agar. Prior to treatment, the cotton was steam sterilized at 121° C. The samples were incubated at 37° C.±2° C. for 18 to 24 hours. The samples were each laundered 50 times unless indicated to the contrary. NZ means that no zone of inhibition surrounded the sample. NI means there was no inhibition of growth under the sample (if observable). The zone of inhibition was reported in millimeters.

[4] = test system: K. pneumoniae; assay: as above; details: Example 2; agent at 900 ppm; cotton laundered 50 times
Method: as §3, §4

Molecule	Size of Zone [1] [mm]	Zone Results [1]	Size of Zone [2] [mm]	Zone Results [2]	Size of Zone [3] [mm]	Size of Zone [4] [mm]	Zone Results [4]
Oc1ccccc1-c1ccccc1 [Ortho-phenyl phenol]	0	NZ/NI	0	NZ/NI			
O=C(Nc1ccc(Cl)cc1)Nc1ccc(Cl)c(Cl)c1 [Triclocarban]	0	NZ/NI	0	NZ/NI			
Zinc pyrithione [Zinc pyrithione (FPS dispersion)]	0	NZ/I	0	NZ/NI	2	0	NZ/NI
